Experimental data reported in patent US11951088B2, “Fatty acid analogs and their use in the treatment of conditions related to metabolic syndrome” (Epitracker, Inc., priority 2017, dated 2024).
Where two headings read alike, the source gives them in different places.

Key:
[1] = 24-hour plasma pharmacokinetics after single oral dose in rats; assay type: in vivo; details: for bioavailability: po, 35 mg/kg
human PPAR-α = molecular target: T1, human PPAR-α (Homo sapiens, UniProt Q07869); test: PathHunter NHR Protein Interaction assay, PPAR-α agonist activity (CHO cells); details: PPAR-alpha; Table 4
T1 sequence (Q07869 1-468): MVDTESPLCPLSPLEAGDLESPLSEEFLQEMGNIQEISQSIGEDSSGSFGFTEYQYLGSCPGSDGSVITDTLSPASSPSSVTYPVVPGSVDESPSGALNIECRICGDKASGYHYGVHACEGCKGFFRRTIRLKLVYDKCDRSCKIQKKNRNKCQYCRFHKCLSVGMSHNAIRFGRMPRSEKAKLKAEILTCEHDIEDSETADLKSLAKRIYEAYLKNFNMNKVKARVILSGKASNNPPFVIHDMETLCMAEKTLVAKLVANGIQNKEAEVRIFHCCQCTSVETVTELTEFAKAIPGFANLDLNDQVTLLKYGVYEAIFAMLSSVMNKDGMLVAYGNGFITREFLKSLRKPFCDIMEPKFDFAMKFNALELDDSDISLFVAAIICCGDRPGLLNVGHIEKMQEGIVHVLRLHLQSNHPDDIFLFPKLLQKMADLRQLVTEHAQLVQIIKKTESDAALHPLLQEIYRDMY
Description: (§1) PPAR-α, PPAR-δ, and PPAR-γ agonist activities were measured using PathHunter Nuclear Hormone Receptor (NHR) Protein Interaction (Pro) assays (DiscoverX, Freemont, California). Briefly, Chinese hamster ovary (CHO) cell lines were used to monitor the activation of PPAR-α, PPAR-δ, and PPAR-γ in a homogenous, non-imaging assay format using Enzyme Fragment Complementation (EFC). The NHR Pro assay was based on detection of protein-protein interactions between activated, full length PPAR-α, PPAR-δ, and PPAR-γ proteins and a nuclear fusion protein containing Steroid Receptor Co-activator Peptide (SRCP) domains with one or more canonical LXXLL interaction motifs. PPAR-α, PPAR-δ, and PPAR-γ were tagged with the ProLink component of the EFC assay system, and the SRCP domain was fused to the enzyme acceptor component (EA) expressed in the nucleus. When bound by ligand, PPAR-α, PPAR-δ, or PPAR-γ migrated to the nucleus and recruited the SRCP domain, whereby complementation occurred, generating a unit of active β-Galactosidase (β-Gal) and production of chemiluminescent signal. […] Percentage activity was calculated using the following formula: % Activity=100%×(mean RLU of test sample−mean RLU of vehicle control)/(mean MAX control ligand−mean RLU of vehicle control).

[2] = system: C57BL/6J mice fed a high fat diet; test: diet-induced obese mice treated daily by gastric gavage for 12 weeks; assay type: in vivo
Description: Forty C57BL/6J mice were fed a high fat diet (HFD) (D12492, 60% kcals fat) for 8 weeks. Study mice were then divided into the following four groups of ten: vehicle controls, low dose C17:0-treated (5 mg/kg body weight), high-dose C17:0-treated (50 mg/kg body weight), and low-dose C15:0-treated (5 mg/kg body weight).
Table 1 provides comparisons of cardiometabolic effects in diet-induced obese mice treated daily with oral pentadecanoic acid (5 mg/kg BW), heptadecanoic acid (5 and 50 mg/kg BW) for 12 weeks compared to vehicle controls. “Results” values are based on 6 h fasted samples.

human PPAR-δ = molecular target: T2, human PPAR-δ (Homo sapiens, UniProt Q03181); test: PathHunter NHR Protein Interaction assay, PPAR-δ agonist activity (CHO cells)
T2 sequence (Q03181 1-441): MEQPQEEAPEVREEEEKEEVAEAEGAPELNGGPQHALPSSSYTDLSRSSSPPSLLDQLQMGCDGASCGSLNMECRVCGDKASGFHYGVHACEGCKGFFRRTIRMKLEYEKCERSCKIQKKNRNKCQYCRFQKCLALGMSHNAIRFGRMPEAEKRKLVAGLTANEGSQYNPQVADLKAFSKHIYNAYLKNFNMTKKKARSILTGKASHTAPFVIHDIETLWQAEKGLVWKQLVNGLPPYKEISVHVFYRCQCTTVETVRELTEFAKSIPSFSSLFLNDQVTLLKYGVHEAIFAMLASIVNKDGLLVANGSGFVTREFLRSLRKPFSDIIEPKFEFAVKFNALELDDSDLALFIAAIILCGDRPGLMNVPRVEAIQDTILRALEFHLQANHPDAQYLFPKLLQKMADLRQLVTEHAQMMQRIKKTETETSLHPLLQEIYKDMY
Description: as §1

[3] = system: New Zealand white rabbits fed a high fat diet; test: diet-induced rabbit model for metabolic syndrome-associated dyslipidemia, anemia, liver iron overload and steatohepatitis; assay type: in vivo; details: Day 76
Source text: This study further assessed the efficacy of treating diseases associated with metabolic syndrome, including dyslipidemia, inflammation, anemia, liver iron overload and nonalcoholic steatohepatitis, using an oral odd-chain saturated fatty acid. Sixteen New Zealand white rabbits were fed a high fat diet (HFD) (4% peanut oil and 0.5% cholesterol) for 2 weeks. Eight additional rabbits were maintained on a baseline diet. Study rabbits were then divided into the following three groups of eight: baseline diet controls, HFD controls, and C15:0-treated (35 mg/kg body weight) cases. The test article was a synthetic powder stable at room temperature and purchased from Sigma-Aldrich (Products W433400 (≥99% C15:0). The test article was provided daily in the diet for 11 weeks (76 days) while continuing ad libitum access to the HFD (HFD controls and treated groups) or baseline diet (baseline diet controls). Body weight and food intake were measured weekly. Plasma clinical chemistries and red blood cell indices, as well as iron deposition and fibrosis in the liver, were assessed at Day 76. Data from the treated group were compared to the control groups using Wilcoxon rank sum analyses. […].
Table 2 provides comparisons of clinical effects from a diet-induced rabbit model for metabolic syndrome-associated dyslipidemia, inflammation, and hemolytic anemia, including a case group treated daily with oral pentadecanoic acid (C15:0) (35 mg/kg BW) for 11 weeks.
Table 3 provides comparisons of effects on liver histology in a diet-induced rabbit model for metabolic syndrome-associated liver iron overload and nonalcoholic steatohepatitis, including a case group treated daily with oral pentadecanoic acid (C15:0) (35 mg/kg BW) for 11 weeks.

human PPAR-γ = molecular target: T3, human PPAR-γ (Homo sapiens, UniProt P37231); test: PathHunter NHR Protein Interaction assay, PPAR-γ agonist activity (CHO cells)
T3 sequence (P37231 1-505): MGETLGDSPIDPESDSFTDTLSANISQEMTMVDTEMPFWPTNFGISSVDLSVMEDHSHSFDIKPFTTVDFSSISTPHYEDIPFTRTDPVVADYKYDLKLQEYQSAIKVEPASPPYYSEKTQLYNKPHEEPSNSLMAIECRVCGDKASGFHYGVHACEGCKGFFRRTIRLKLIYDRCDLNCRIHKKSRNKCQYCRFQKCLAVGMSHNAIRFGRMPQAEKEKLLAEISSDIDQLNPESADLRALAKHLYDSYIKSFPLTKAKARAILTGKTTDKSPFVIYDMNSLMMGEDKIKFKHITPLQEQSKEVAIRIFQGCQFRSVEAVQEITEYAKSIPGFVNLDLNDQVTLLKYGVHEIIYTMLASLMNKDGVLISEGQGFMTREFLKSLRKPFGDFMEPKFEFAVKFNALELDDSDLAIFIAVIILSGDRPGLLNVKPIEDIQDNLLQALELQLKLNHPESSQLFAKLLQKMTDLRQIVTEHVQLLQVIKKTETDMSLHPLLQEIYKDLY
Description: as §1

[4] = Day 84, 6 h fasted, 5 mg/kg daily oral

## CCCCCCCCCCCCCCC(=O)O [C15:0, pentadecanoic acid]
[1]; 35 mg/kg single oral dose
  Cmin: 700 ng/mL
  Tlast: 24 h
[1]; rat, 35 mg/kg single oral dose
  AUC(0-t): 46400 ng·h/mL
  Tmax: 1 h
[1]; rat, 35 mg/kg single oral dose, deuterated form
  Cmax: 4980 ng/mL
[1]; rat, 35 mg/kg single oral dose, estimate using an AUC of 15 for a 1 mg/kg IV arm, read-out: % F
  bioavailability: 8.83%
[1]; rat, oral, rats, read-out: estimated plasma % F (bioavailability)
  bioavailability: 9%
Human PPAR-α
  EC50: 11.5 µM
[2]; 12 weeks daily oral, C15:0 5 mg/kg, C17:0 5 and 50 mg/kg
  metabolic syndrome compared to vehicle controls (in words): attenuated metabolic syndrome
[2]; [4]
  Cholesterol: 183 ± 25 mg/dL
  Glucose: 245 ± 37 mg/dL
  IL-6: 19 ± 11 pg/mL
  Insulin: 4.9 ± 3.8 ng/mL
  LDL-C: 6 ± 4 mg/dL
  MCP-1: 52 ± 25 pg/mL
  TNF-α: 1.6 ± 1.0 pg/mL
Human PPAR-δ
  PPAR-delta agonist activity (in words): partial PPAR delta agonist
[3]; 35 mg/kg
  clinical effects compared to the HFD controls (in words): attenuated anemia, liver iron deposition, and liver fibrosis
[3]; 35 mg/kg/day in HFD
  Hematocrit: 38 ± 4%
  Hemoglobin: 14 ± 1 G/dl
  Mean cell hemoglobin: 23 ± 1 pg
  Mean cell volume: 64 ± 2 fL
  Nucleated red blood cells: 8 ± 1 10^3/ul
  Platelets: 485 ± 87 10^3/ul
  Red blood cell distribution width: 15 ± 1%
  Red blood cells: 6.0 ± 0.7 10^6/ul
[3]; plasma, 35 mg/kg/day in HFD
  Cholesterol: 2516 ± 746 mg/dL
  Globulins: 1.3 ± 0.7 G/dl
  Lipemia: 341 ± 243 mg/dL
  Triglycerides: 235 ± 132 mg/dL
Human PPAR-γ
  EC50: > 100 µM
Human PPAR-γ; read-out: Half Maximal Effective Concentration (EC50), PPAR-γ, Table 5
  EC50: > 100 µM
